Patent US8614242B2, “1-(heterocyclic carbonyl)-2-substituted pyrrolidines” (Bayer Intellectual Property GmbH, priority 2010, dated 2013)

How the values were obtained:
[1] = logP by HPLC on reversed-phase column (EEC Directive 79/831 Annex V.A8); type: physicochemical; conditions: HPLC on reversed-phase column (C 18), 40° C., 0.1% aqueous formic acid and acetonitrile, linear gradient 10% to 90% acetonitrile
Procedure: In table 1, the logP values were determined in accordance with EEC Directive 79/831 Annex V.A8 by HPLC (High Performance Liquid Chromatography) on a reversed-phase column (C 18), using the method described below: Temperature: 40° C.; Mobile phases: 0.1% aqueous formic acid and acetonitrile; linear gradient from 10% acetonitrile to 90% acetonitrile. Calibration was carried out using unbranched alkan-2-ones (comprising 3 to 16 carbon atoms) with known logP values (determination of the logP values by the retention times using linear interpolation between two successive alkanones). lambda-max-values were determined using UV-spectra from 200 nm to 400 nm and the peak values of the chromatographic signals.

Sphaerotheca fuliginea = assay: In vivo preventive test on Sphaerotheca fuliginea (cucumber); conditions: 500 ppm of active ingredient, evaluated 7 days after inoculation
Alternaria solani = assay: In vivo preventive test on Alternaria solani (tomato); conditions: 500 ppm of active ingredient, evaluated 7 days after inoculation
Procedure: The plants remain for one day in an incubation cabinet at approximately 22° C. and a relative atmospheric humidity of 100%. Then the plants are placed in an incubation cabinet at approximately 20° C. and a relative atmospheric humidity of 96%.

Pyrenophora teres = assay: In vivo preventive test on Pyrenophora teres (barley); conditions: 500 ppm of active ingredient, evaluated 7-9 days after inoculation
Procedure: The plants remain for 48 hours in an incubation cabinet at 22° C. and a relative atmospheric humidity of 100%.

Venturia inaequalis = assay: In vivo preventive test on Venturia inaequalis (apple scab); conditions: 100 ppm of active ingredient, evaluated 10 days after inoculation
Procedure: After the spray coating has dried on, the plants are inoculated with an aqueous conidia suspension of the causal agent of apple scab (Venturia inaequalis) and then remain for 1 day in an incubation cabinet at approximately 20° C. and a relative atmospheric humidity of 100%.

Septoria tritici = assay: In vivo preventive test on Septoria tritici (wheat); conditions: 500 ppm of active ingredient, evaluated 21 days after inoculation
From the text: After the spray coating has been dried, the plants are sprayed with a spore suspension of Septoria tritici.

[2] = system: Fusarium nivale (var. majus); assay: In vivo preventive test on Fusarium nivale (wheat); conditions: 500 ppm of active ingredient, evaluated 5 days after inoculation
From the text: After the spray coating has been dried, the plants are slightly injured by using a sandblast and afterwards they are sprayed with a conidia suspension of Fusarium nivale (var. majus).

Puccinia triticina = assay: In vivo preventive test on Puccinia triticina (wheat); conditions: 500 ppm of active ingredient, evaluated 8 days after inoculation
Procedure: In Vivo Preventive Test on Puccinia Triticina (Wheat)
Solvent: 49 parts by weight of N,N-dimethylacetamide
Emulsifier: 1 part by weight of alkylaryl polyglycol ether
After the spray coating has been dried, the plants are sprayed with a spore suspension of Puccinia triticina.
The test is evaluated 8 days after the inoculation.

Pyricularia oryzae = type: in vivo; conditions: rice, protective, 250 ppm of active ingredient, evaluated 5 days after inoculation
Rhizoctonia solani = assay: In vivo protective test on Rhizoctonia solani (rice); conditions: 250 ppm of active ingredient, evaluated 4 days after inoculation
From the text: In Vivo Protective Test on Rhizoctonia Solani (Rice)

Cochliobolus miyabeanus = conditions: rice, protective, 250 ppm of active ingredient, evaluated 4 days after inoculation
Procedure: In Vivo Protective Test on Cochliobolus Miyabeanus (Rice)
Solvent: 28.5 parts by weight of acetone
Emulsifier: 1.5 part by weight of polyoxyethylene alkyl phenyl ether
One day after spraying, the plants are inoculated with an aqueous spore suspension of the causal agent of rice brown spot (Cochliobolus miyabeanus). The plants are then placed in an incubator at approximately 25° C. and a relative atmospheric humidity of approximately 100% for 1 day.
The test is evaluated 4 days after the inoculation.

[3] = system: Blumeria graminis f.sp. hordei; assay: In vivo preventive test on Blumeria graminis (barley); conditions: 500 ppm of active ingredient, evaluated 7 days after inoculation
From the text: After the spray coating has been dried, the plants are dusted with spores of Blumeria graminis f.sp. hordei.

Leptosphaeria nodorum = assay: In vivo preventive test on Leptosphaeria nodorum (wheat); conditions: 500 ppm of active ingredient, evaluated 8 days after inoculation
From the text: After the spray coating has been dried, the plants are sprayed with a spore suspension of Leptosphaeria nodorum.

Phakopsora pachyrhizi = assay: In vivo protective test on Phakopsora pachyrhizi (soybeans); conditions: 250 ppm of active ingredient, evaluated 11 days after inoculation
Procedure: In Vivo Protective Test on Phakopsora Pachyrhizi (Soybeans)
The test is evaluated 11 days after the inoculation.

Row | SMILES | logP [1] | Efficacy (Sphaerotheca fuliginea) [%] | Efficacy (Alternaria solani) [%] | Efficacy (Pyrenophora teres) [%] | Efficacy (Venturia inaequalis) [%] | Efficacy (Septoria tritici) [%] | Efficacy [2] [%] | Efficacy (Puccinia triticina) [%] | Efficacy (Pyricularia oryzae) [%] | Efficacy (Rhizoctonia solani) [%] | Efficacy (Cochliobolus miyabeanus) [%] | Efficacy [3] [%] | Efficacy (Leptosphaeria nodorum) [%] | protection (efficacy) (Phakopsora pachyrhizi) [%]
1 | Cc1cc(C)c(CC2CCCN2C(=O)c2c(C(F)F)nn(C)c2F)cc1C (racemic) [Example 66] | 3.81 | 88 | 100 | 100 | 100 | 90 | 100 | 100 | 97 | 80 | 98 | – | – | –
2 | Cn1nc(C(F)F)c(C(=O)N2CCCC2c2cccc(C(F)(F)F)c2)c1F (centres unmarked) [Example 17] | 3.06 | 95 | 100 | 100 | – | – | – | – | 92 | – | 98 | – | – | –
3 | Cn1nc(C(F)F)c(C(=O)N2CCC[C@H]2COc2c(Cl)cc(Cl)cc2Cl)c1F [Example 82] | 4.24 | 100 | – | – | – | 86 | 100 | 100 | 98 | 100 | 93 | 100 | – | –
4 | CCC(c1ccccc1)C1CCCN1C(=O)c1c(C(F)F)nn(C)c1F (centres unmarked) [Example 53] | 3.48 | 93 | 94 | 100 | 100 | 100 | 100 | 88 | – | – | 95 | 100 | 100 | 85
